Test results from the NIST ThermoML archive (doi:10.1021/je025657+).
Where “and” joins values, the source holds several entries; their conditions need not be identical. Identical values can stand only once.

COC(F)(F)C(F)(F)F [methyl pentafluoroethyl ether]
Settings	mass density [kg/m3]
240 K, 142.7 kPa, Liquid	1425.44
240 K, 525.8 kPa, Liquid	1426.3
240 K, 1016.6 kPa, Liquid	1427.42
240 K, 1498.9 kPa, Liquid	1428.49
240 K, 2020 kPa, Liquid	1429.64
240 K, 2495.8 kPa, Liquid	1430.67
240 K, 3020.1 kPa, Liquid	1431.83
240 K, 3526.2 kPa, Liquid	1432.91
240 K, 4022.9 kPa, Liquid	1433.98
240 K, 4516.7 kPa, Liquid	1435.03
240 K, 5006.8 kPa, Liquid	1436.06
240 K, 5507.4 kPa, Liquid	1437.1
240 K, 6031.3 kPa, Liquid	1438.18
240 K, 6522.4 kPa, Liquid	1439.2
240 K, 6991.3 kPa, Liquid	1440.14
250 K, 508.4 kPa, Liquid	1401.06
250 K, 999.4 kPa, Liquid	1402.28
250 K, 1512.6 kPa, Liquid	1403.57
250 K, 1981.4 kPa, Liquid	1404.73
250 K, 2484.2 kPa, Liquid	1405.96
250 K, 3006.1 kPa, Liquid	1407.22
250 K, 3493.4 kPa, Liquid	1408.39
250 K, 4031.6 kPa, Liquid	1409.66
250 K, 4527.8 kPa, Liquid	1410.82
250 K, 5017.1 kPa, Liquid	1411.96
250 K, 5520.4 kPa, Liquid	1413.12
250 K, 5982.1 kPa, Liquid	1414.17
250 K, 6505.2 kPa, Liquid	1415.37
250 K, 6941.8 kPa, Liquid	1416.34
260 K, 86.5 kPa, Liquid	1374.31
260 K, 500.8 kPa, Liquid	1375.48
260 K, 1002.7 kPa, Liquid	1376.9
260 K, 1516.5 kPa, Liquid	1378.35
260 K, 2001 kPa, Liquid	1379.71
260 K, 2509.7 kPa, Liquid	1381.11
260 K, 3006.5 kPa, Liquid	1382.45
260 K, 3509.7 kPa, Liquid	1383.8
260 K, 4009.1 kPa, Liquid	1385.14
260 K, 4516.6 kPa, Liquid	1386.48
260 K, 5008.9 kPa, Liquid	1387.75
260 K, 5494.8 kPa, Liquid	1389
260 K, 6029.6 kPa, Liquid	1390.36
260 K, 6497.8 kPa, Liquid	1391.53
260 K, 6976.1 kPa, Liquid	1392.71
270 K, 526.2 kPa, Liquid	1348.82
270 K, 1033.1 kPa, Liquid	1350.45
270 K, 1545.3 kPa, Liquid	1352.07
270 K, 2026.1 kPa, Liquid	1353.57
270 K, 2522.2 kPa, Liquid	1355.11
270 K, 3044.2 kPa, Liquid	1356.7
270 K, 3549.7 kPa, Liquid	1358.22
270 K, 3956.7 kPa, Liquid	1359.43
270 K, 4491.8 kPa, Liquid	1360.99
270 K, 5023.1 kPa, Liquid	1362.54
270 K, 5514.7 kPa, Liquid	1363.95
270 K, 6030.4 kPa, Liquid	1365.42
270 K, 6512.4 kPa, Liquid	1366.76
270 K, 6977.7 kPa, Liquid	1367.99
280 K, 445.3 kPa, Liquid	1320.87
280 K, 957.2 kPa, Liquid	1322.76
280 K, 1474.3 kPa, Liquid	1324.63
280 K, 1861.1 kPa, Liquid	1326.03
280 K, 2459.7 kPa, Liquid	1328.12
280 K, 2951.9 kPa, Liquid	1329.83
280 K, 3497.7 kPa, Liquid	1331.69
280 K, 3963.9 kPa, Liquid	1333.26
280 K, 4513.2 kPa, Liquid	1335.09
280 K, 4981.9 kPa, Liquid	1336.62
280 K, 5492.2 kPa, Liquid	1338.26
280 K, 5847.1 kPa, Liquid	1339.41
280 K, 6466.8 kPa, Liquid	1341.37
280 K, 7194.3 kPa, Liquid	1343.64
290 K, 83.3 kPa, Liquid	1290.78
290 K, 504.8 kPa, Liquid	1292.57
290 K, 981.6 kPa, Liquid	1294.58
290 K, 1520.9 kPa, Liquid	1296.8
290 K, 2011.5 kPa, Liquid	1298.79
290 K, 2520.4 kPa, Liquid	1300.82
290 K, 2991.9 kPa, Liquid	1302.67
290 K, 3491.2 kPa, Liquid	1304.61
290 K, 4006.3 kPa, Liquid	1306.56
290 K, 4525.3 kPa, Liquid	1308.51
290 K, 4985.1 kPa, Liquid	1310.22
290 K, 5527.4 kPa, Liquid	1312.2
290 K, 6024.9 kPa, Liquid	1313.97
290 K, 6484.8 kPa, Liquid	1315.61
290 K, 6967.8 kPa, Liquid	1317.32
300 K, 45.7 kPa, Gas	2.84
300 K, 56.7 kPa, Gas	3.73
300 K, 82 kPa, Gas	5.31
300 K, 93.3 kPa, Gas	6.05
300 K, 98.2 kPa, Gas	6.15
300 K, 116.1 kPa, Gas	7.55
300 K, 131.7 kPa, Gas	8.6
300 K, 165.9 kPa, Gas	10.97
300 K, 188.8 kPa, Gas	12.58
300 K, 218.2 kPa, Gas	15.51
300 K, 225.7 kPa, Liquid	1260.66
300 K, 238.5 kPa, Liquid	1260.72
300 K, 491.2 kPa, Liquid	1262.72
300 K, 953.1 kPa, Liquid	1264.98
300 K, 1060.7 kPa, Liquid	1264.75
300 K, 1531 kPa, Liquid	1267.74
300 K, 2019 kPa, Liquid	1270.02
300 K, 2031.9 kPa, Liquid	1269.32
300 K, 2496.4 kPa, Liquid	1272.22
300 K, 2993.2 kPa, Liquid	1274.45
300 K, 3055.9 kPa, Liquid	1273.93
300 K, 3514 kPa, Liquid	1276.75
300 K, 4031 kPa, Liquid	1279
300 K, 4031.8 kPa, Liquid	1278.16
300 K, 4522.9 kPa, Liquid	1281.1
300 K, 4978 kPa, Liquid	1283
300 K, 5197 kPa, Liquid	1282.99
300 K, 5491.3 kPa, Liquid	1285.12
300 K, 5997.8 kPa, Liquid	1287.18
300 K, 6173.2 kPa, Liquid	1286.91
300 K, 6524.7 kPa, Liquid	1289.29
300 K, 7023.9 kPa, Liquid	1291.24
300 K, 7126.4 kPa, Liquid	1290.5
310 K, 21.5 kPa, Gas	1.25
310 K, 31.7 kPa, Gas	1.86
310 K, 97.3 kPa, Gas	5.82
310 K, 144.4 kPa, Gas	8.89
310 K, 195.7 kPa, Gas	12.34
310 K, 245.2 kPa, Gas	15.73
310 K, 276.7 kPa, Gas	17.86
310 K, 300.3 kPa, Liquid	1229.27
310 K, 312.6 kPa, Liquid	1229.37
310 K, 517 kPa, Liquid	1231.54
310 K, 1007.8 kPa, Liquid	1234.36
310 K, 1029.3 kPa, Liquid	1233.39
310 K, 1513.8 kPa, Liquid	1237.16
310 K, 2033.1 kPa, Liquid	1239.99
310 K, 2065.7 kPa, Liquid	1238.99
310 K, 2524.9 kPa, Liquid	1242.6
310 K, 3064.4 kPa, Liquid	1245.4
310 K, 3131.6 kPa, Liquid	1244.48
310 K, 3532.8 kPa, Liquid	1247.78
310 K, 3972.8 kPa, Liquid	1249.95
310 K, 4126.7 kPa, Liquid	1249.38
310 K, 4507.3 kPa, Liquid	1252.57
310 K, 5034.7 kPa, Liquid	1255.08
310 K, 5145.5 kPa, Liquid	1254.18
310 K, 5514.9 kPa, Liquid	1257.34
310 K, 6031.8 kPa, Liquid	1259.71
310 K, 6158.3 kPa, Liquid	1258.81
310 K, 6533.8 kPa, Liquid	1261.96
310 K, 7010.8 kPa, Liquid	1264.09
310 K, 7224 kPa, Liquid	1263.45
320 K, 61.7 kPa, Gas	3.58
320 K, 90.4 kPa, Gas	5.23
320 K, 101.6 kPa, Gas	5.98
320 K, 132 kPa, Gas	7.77
320 K, 155.5 kPa, Gas	9.32
320 K, 191.5 kPa, Gas	11.5
320 K, 213.2 kPa, Gas	12.95
320 K, 276.1 kPa, Gas	17.25
320 K, 336.5 kPa, Gas	21.52
320 K, 383 kPa, Gas	24.92
320 K, 384.9 kPa, Gas	25.11
320 K, 389.1 kPa, Gas	25.46
320 K, 413.8 kPa, Liquid	1196.33
320 K, 506.3 kPa, Liquid	1198.36
320 K, 1023.1 kPa, Liquid	1201.87
320 K, 1053 kPa, Liquid	1200.63
320 K, 1521.8 kPa, Liquid	1205.15
320 K, 2002.9 kPa, Liquid	1208.23
320 K, 2051.9 kPa, Liquid	1207.02
320 K, 2517.3 kPa, Liquid	1211.43
320 K, 3022.6 kPa, Liquid	1214.49
320 K, 3053.1 kPa, Liquid	1213.09
320 K, 3517.5 kPa, Liquid	1217.45
320 K, 4012.9 kPa, Liquid	1220.32
320 K, 4120.2 kPa, Liquid	1219.2
320 K, 4543.1 kPa, Liquid	1223.3
320 K, 5018.6 kPa, Liquid	1225.9
320 K, 5085.4 kPa, Liquid	1224.49
320 K, 5551.9 kPa, Liquid	1228.77
320 K, 5992.8 kPa, Liquid	1231.09
320 K, 6206.6 kPa, Liquid	1230.35
320 K, 6495.8 kPa, Liquid	1233.69
320 K, 6965.6 kPa, Liquid	1236.06
320 K, 7182.7 kPa, Liquid	1235.21
330 K, 70.8 kPa, Gas	3.97
330 K, 98.4 kPa, Gas	5.48
330 K, 103.9 kPa, Gas	5.88
330 K, 151.6 kPa, Gas	8.67
330 K, 169.4 kPa, Gas	9.72
330 K, 219.7 kPa, Gas	12.83
330 K, 235.2 kPa, Gas	13.71
330 K, 295.3 kPa, Gas	17.66
330 K, 307.4 kPa, Gas	18.42
330 K, 315.2 kPa, Gas	18.98
330 K, 375.8 kPa, Gas	23.12
330 K, 444.8 kPa, Gas	28.23
330 K, 472.9 kPa, Gas	30.25
330 K, 547.4 kPa, Liquid	1161.55
330 K, 1004 kPa, Liquid	1165.27
330 K, 1009.1 kPa, Liquid	1167.02
330 K, 1493.2 kPa, Liquid	1170.86
330 K, 1999 kPa, Liquid	1172.99

mass density
Settings	240 K	250 K	260 K	270 K	280 K	290 K	300 K	310 K	320 K
Gas	–	–	–	–	–	–	–	23.61 kg/m3	29.81 kg/m3
Liquid	1425.22 kg/m3	1399.85 kg/m3	1374.2 kg/m3	1347.19 kg/m3	1319.62 kg/m3	1291.09 kg/m3	1260.39 kg/m3 and 1261.37 kg/m3 and 1261.41 kg/m3	1230.28 kg/m3	1196.29 kg/m3 and 1197.68 kg/m3
